Consider 15 compounds from patent publication US8129366B2, “VLA-4 inhibitory drug” (Daiichi Sankyo Company, Limited, priority 2005, dated 2012).

Structures are written as SMILES. pIC50, pKi: −log10 of the molar value.

This experiment has as its target T1, hα4 and β1 integrins (Homo sapiens, UniProt P05556+P13612).
T1 construct: expressed in transfected cells; host or cells: CHO cells
Briefly: In vitro inhibition of binding between CHO cells expressing hα4 and β1 integrins and Eu3+-hVCAM-1 D1D7-IgG. The note with it: for pKi: CHO cells expressing hα4 and β1 integrins, Eu3+-hVCAM-1 D1D7-IgG ligand, without HSA; for pIC50: in the presence of 3% human serum albumin (HSA final concentration 3%). As for the experimental part:
CHO cells which forcibly expressed hα4 and β1 integrins through transfection thereof, were inoculated into a Costar 3599 plate (3×10^4 cells/100 μl/well), and cultured for two days. The cells in the wells were washed two times with buffer A*, and then Eu^3+-hVCAM-1 D1D7-IgG diluted with assay buffer** to 2 nM was added in an amount of 50 μl/well. The substance under test diluted with 26 DMSO-assay buffer (in the co-presence or absence of 6% human serum albumin) was added in an amount of 50 μl/well (adding separately diluted solution to the wells for performing Scatchard analysis), the contents were stirred for 5 minutes with a plate mixer, and then the plate was left to stand still for one hour at room temperature. The binding inhibitory activity in the presence of human serum albumin (HSA) was examined by diluting the specimen with 26 DMSO-assay buffer containing 6% HSA (SIGMA Corp., c/n A-1653), and adding the resultant (HSA final concentration 3%). After 30 to 60 minutes of the addition of specimen, the plate contents were washed 4 times with buffer A at 4° C., an enhancing reagent (DELFIA SA) was added in an amount of 100 μl/well, and the plate was shaken for 5 minutes using a plate mixer. Subsequently, the fluorescence intensity was measured with a time-resolved fluorometer (DELFIA Wallac). The IC50 of the substance under test (the concentration for 50% inhibition of the binding between CHO cells and Eu^3+-hVCAM-1 D1D7-IgG) was determined from the binding rate obtained from the calculating expression of [(FT−FNS)−(FI−FNS)]/[(FT−FNS)]×100. Here, FT represents the fluorescence intensity of a well not containing the substance under test; FNS represents the fluorescence intensity of a well not containing the substance under test and hVCAM-1 D1D7-IgG; and FI represents the fluorescence intensity of a well containing the substance under test. The Kd value which represents the strength of binding, and Bmax (maximum binding amount) were estimated to be in the range of 0.06 to 20 nM according to the Scatchard analysis method. The evaluation results of the Ki value of the substance under test, and of the IC50 value in the presence of 3% HSA are presented in Tables 2 to 7.
The Ki value was calculated according to the above-described expression. ([L] is the ligand concentration)
[* buffer A: 25 mM HEPES (pH 7.5), 150 mM NaCl, 1 mM Ca^2+, 1 mM Mg^2+, 4 mM Mn2+;
** assay buffer: 25 mM HEPES (pH=7.5), 150 mM NaCl, 1 mM Ca^2+, 1 mM Mg^2+, 4 mM Mn^2+, 0.1% BSA, 20 μM DTPA, with/without 6% ALBUMIN, HUMAN SERUM (C/N A-1653, SIGMA)]

T1 sequence (P13612 34-1032): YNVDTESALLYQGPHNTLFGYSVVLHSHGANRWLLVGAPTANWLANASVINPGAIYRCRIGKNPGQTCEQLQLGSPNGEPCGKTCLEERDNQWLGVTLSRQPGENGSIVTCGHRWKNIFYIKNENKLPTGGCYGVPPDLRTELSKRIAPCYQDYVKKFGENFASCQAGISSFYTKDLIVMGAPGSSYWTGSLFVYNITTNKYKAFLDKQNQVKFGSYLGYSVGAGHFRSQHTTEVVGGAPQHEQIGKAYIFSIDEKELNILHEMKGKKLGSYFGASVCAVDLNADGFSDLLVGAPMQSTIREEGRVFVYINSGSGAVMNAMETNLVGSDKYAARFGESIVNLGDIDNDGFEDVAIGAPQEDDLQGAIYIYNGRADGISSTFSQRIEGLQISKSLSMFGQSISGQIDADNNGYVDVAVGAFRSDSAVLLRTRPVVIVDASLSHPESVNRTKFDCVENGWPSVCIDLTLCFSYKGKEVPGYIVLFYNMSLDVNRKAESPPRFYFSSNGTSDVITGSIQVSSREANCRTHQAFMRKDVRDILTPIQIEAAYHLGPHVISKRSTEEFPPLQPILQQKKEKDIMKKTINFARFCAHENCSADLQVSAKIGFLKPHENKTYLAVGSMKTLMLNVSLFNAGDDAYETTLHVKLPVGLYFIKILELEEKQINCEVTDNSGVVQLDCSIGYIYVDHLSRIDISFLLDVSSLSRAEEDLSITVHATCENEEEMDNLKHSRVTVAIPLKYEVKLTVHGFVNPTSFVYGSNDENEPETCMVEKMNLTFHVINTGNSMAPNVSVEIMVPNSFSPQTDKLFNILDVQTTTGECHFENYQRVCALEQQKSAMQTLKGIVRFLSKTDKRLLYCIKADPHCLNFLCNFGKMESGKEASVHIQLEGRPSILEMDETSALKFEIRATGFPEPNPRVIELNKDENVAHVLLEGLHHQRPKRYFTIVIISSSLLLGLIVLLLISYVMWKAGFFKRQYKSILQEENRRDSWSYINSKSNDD
T1 sequence (P05556 21-798): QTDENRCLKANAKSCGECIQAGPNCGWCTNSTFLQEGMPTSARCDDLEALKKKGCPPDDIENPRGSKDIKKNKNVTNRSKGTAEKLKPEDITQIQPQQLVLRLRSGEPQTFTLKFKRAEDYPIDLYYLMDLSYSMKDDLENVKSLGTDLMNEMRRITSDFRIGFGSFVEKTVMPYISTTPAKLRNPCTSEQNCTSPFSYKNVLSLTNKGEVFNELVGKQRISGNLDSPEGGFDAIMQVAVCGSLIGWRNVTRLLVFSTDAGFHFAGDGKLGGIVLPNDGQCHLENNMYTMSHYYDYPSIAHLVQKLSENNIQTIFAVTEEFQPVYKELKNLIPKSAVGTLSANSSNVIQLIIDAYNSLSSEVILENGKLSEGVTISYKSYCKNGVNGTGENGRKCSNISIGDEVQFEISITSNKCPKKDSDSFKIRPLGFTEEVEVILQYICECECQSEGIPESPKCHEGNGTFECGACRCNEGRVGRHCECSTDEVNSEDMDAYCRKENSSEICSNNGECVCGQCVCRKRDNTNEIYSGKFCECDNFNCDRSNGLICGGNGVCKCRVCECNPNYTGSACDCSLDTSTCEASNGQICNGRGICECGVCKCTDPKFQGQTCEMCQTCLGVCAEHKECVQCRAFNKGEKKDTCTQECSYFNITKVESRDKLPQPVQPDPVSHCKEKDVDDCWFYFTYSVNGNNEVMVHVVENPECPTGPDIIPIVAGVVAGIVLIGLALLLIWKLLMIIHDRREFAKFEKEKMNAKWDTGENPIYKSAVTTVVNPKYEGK

By pKi is commonly meant the Ki on a negative log10 scale, so that one unit is a factor of ten. Lower therefore signals a large Ki. As usually defined, the pIC50 is the negative decadic logarithm of the IC50, by convention in mol/L. In the case of `C[C@@H]1CN([C@H]2C[C@@H](CO[C@H]3CC[C@H](C(=O)O)CC3)N(C(=O)Cc3cc(Cl)c(NC(=O)c4csc5ccccc45)cc3Cl)C2)C[C@H](C)O1` [Example 82, Trans-4-[1-[[4-[(benzo[b]thiophen-3-ylcarbonyl)amino]-2,5-dichlorophenyl]acetyl]-(4S)-(cis-2,6-dimethylmorpholin-4-yl)-(2S)-pyrrolidinylmethoxy]cyclohexanecarboxylic acid], the pKi was 8.62 and the pIC50 is 7.74.

Regarding `C[C@@H]1CN([C@H]2C[C@@H](CO[C@H]3CC[C@H](C(=O)O)CC3)N(C(=O)Cc3cc(Cl)c(NC(=O)c4coc5ccccc45)cc3F)C2)C[C@H](C)O1` [Example 84, Trans-4-[1-[[4-[(benzo[b]furan-3-ylcarbonyl)amino]-5-chloro-2-fluorophenyl]acetyl]-(4S)-(cis-2,6-dimethylmorpholin-4-yl)-(2S)-pyrrolidinylmethoxy]cyclohexanecarboxylic acid], the pKi is 8.62 and the pIC50 was 7.64.

In the case of `C[C@@H]1CN([C@H]2C[C@@H](CO[C@H]3CC[C@H](C(=O)O)CC3)N(C(=O)Cc3ccc(NC(=O)c4cn(C)c5ccccc45)c(Cl)c3)C2)C[C@H](C)O1` [Example 85, Trans-4-[1-[[3-chloro-4-[(1-methyl-1H-indol-3-ylcarbonyl)amino]phenyl]acetyl]-(4S)-(cis-2,6-dimethylmorpholin-4-yl)-(2S)-pyrrolidinylmethoxy]cyclohexanecarboxylic acid], the pKi was 8.70 and the pIC50 is 8.04.

Take `C[C@@H]1CN([C@H]2C[C@@H](CO[C@H]3CC[C@H](C(=O)O)CC3)N(C(=O)Cc3cc(Cl)c(NC(=O)c4c[nH]c5ccccc45)cc3Cl)C2)C[C@H](C)O1` [Example 89, Trans-4-[1-[[2,5-dichloro-4-[(1H-indol-3-ylcarbonyl)amino]phenyl]acetyl]-(4S)-(cis-2,6-dimethylmorpholin-4-yl)-(2S)-pyrrolidinylmethoxy]cyclohexanecarboxylic acid]: the negative logarithm of the Ki (pKi) is 9.02 and the pIC50 was 8.64.

Turning to `C[C@@H]1CN([C@H]2C[C@@H](CO[C@H]3CC[C@H](C(=O)O)CC3)N(C(=O)Cc3cc(Cl)c(NC(=O)c4c[nH]c5ccccc45)cc3F)C2)C[C@H](C)O1` [Example 90, Trans-4-[1-[[5-chloro-2-fluoro-4-[(1H-indol-3-ylcarbonyl)amino]phenyl]acetyl]-(4S)-(cis-2,6-dimethylmorpholin-4-yl)-(2S)-pyrrolidinylmethoxy]cyclohexanecarboxylic acid], the pKi is 8.92 and the pIC50 was 8.62.

For the compound `CC1CN([C@H]2C[C@@H](CO[C@H]3CC[C@H](C(=O)O)CC3)N(C(=O)Cc3cc(Cl)c(NC(=O)c4cn(C)c5ccccc45)cc3Cl)C2)CC(C)O1` (stereo partly drawn) [Example 91, Trans-4-[1-[[2,5-dichloro-4-[(1-methyl-1H-indol-3-ylcarbonyl)amino]phenyl]acetyl]-(4S)-(2,6-dimethylmorpholin-4-yl)-(2S)-pyrrolidinylmethoxy]cyclohexanecarboxylic acid], the pKi was 8.62 and the pIC50 was 7.09.

Take `C[C@@H]1CN([C@H]2C[C@@H](CO[C@H]3CC[C@H](C(=O)O)CC3)N(C(=O)Cc3ccc(NC(=O)c4csc5ccccc45)c(Cl)c3)C2)C[C@H](C)O1` [Example 92, Trans-4-[1-[[4-[(benzo[b]thiophen-3-ylcarbonyl)amino]-3-chlorophenyl]acetyl]-(4S)-(cis-2,6-dimethylmorpholin-4-yl)-(2S)-pyrrolidinylmethoxy]cyclohexanecarboxylic acid]: the pKi is 8.92 and the pIC50 was 8.00.

With `C[C@@H]1COC[C@H](C)N1[C@H]1C[C@@H](CO[C@H]2CC[C@H](C(=O)O)CC2)N(C(=O)Cc2cc(Cl)c(NC(=O)c3cn(C)c4ccccc34)cc2Cl)C1` [Example 93, Trans-4-[1-[[2,5-dichloro-4-[(1-methyl-1H-indol-3-ylcarbonyl)amino]phenyl]acetyl]-(4S)-(cis-3,5-dimethylmorpholin-4-yl)-(2S)-pyrrolidinylmethoxy]cyclohexanecarboxylic acid], the pKi is 8.44 and the negative-log IC50 (pIC50) was 7.66.

On to `O=C(Nc1cc(Cl)c(CC(=O)N2C[C@@H](N3CCCCC3)C[C@H]2CO[C@H]2CC[C@H](C(=O)O)CC2)cc1Cl)c1csc2ccccc12` [Example 95, Trans-4-[1-[[4-[(benzo[b]thiophen-3-ylcarbonyl)amino]-2,5-dichlorophenyl]acetyl]-(4S)-(piperidin-1-yl)-(2S)-pyrrolidinylmethoxy]cyclohexanecarboxylic acid], for which the pKi is 8.89 and the pIC50 was 8.28.

In the case of `Cn1cc(C(=O)Nc2cc(Cl)c(CC(=O)N3C[C@@H](N4CCCCC4)C[C@H]3CO[C@H]3CC[C@H](C(=O)O)CC3)cc2Cl)c2ccccc21` [Example 96, Trans-4-[1-[[2,5-dichloro-4-[(1-methyl-1H-indol-3-ylcarbonyl)amino]phenyl]acetyl]-(4S)-(piperidin-1-yl)-(2S)-pyrrolidinylmethoxy]cyclohexanecarboxylic acid], the pKi is 8.41 and the negative logarithm of the IC50 (pIC50) was 8.13.

Turning to `CCO[C@H]1[C@H](N2CCCCC2)CN(C(=O)Cc2cc(Cl)c(NC(=O)c3cn(C)c4ccccc34)cc2F)[C@@H]1CO[C@H]1CC[C@H](C(=O)O)CC1` [Example 97, Trans-4-[1-[[5-chloro-2-fluoro-4-[(1-methyl-1H-indol-3-ylcarbonyl)amino]phenyl]acetyl]-(3R)-ethoxy-(4R)-(piperidin-1-yl)-(2R)-pyrrolidinylmethoxy]cyclohexanecarboxylic acid], the pKi was 8.80 and the negative logarithm of the IC50 (pIC50) is 8.31.

For `CC1CCN([C@H]2C[C@@H](CO[C@H]3CC[C@H](C(=O)O)CC3)N(C(=O)Cc3cc(Cl)c(NC(=O)c4csc5ccccc45)cc3F)C2)CC1` [Example 98, Trans-4-[1-[[4-[(benzo[b]thiophen-3-ylcarbonyl)amino]-5-chloro-2-fluorophenyl]acetyl]-(4S)-(4-methylpiperidin-1-yl)-(2S)-pyrrolidinylmethoxy]cyclohexanecarboxylic acid], the pKi is 9.05 and the pIC50 was 8.52.

For the compound `O=C(Nc1cc(F)c(CC(=O)N2C[C@@H](N3CCC(F)CC3)C[C@H]2CO[C@H]2CC[C@H](C(=O)O)CC2)cc1Cl)c1csc2ccccc12` [Example 100, Trans-4-[1-[[4-[(benzo[b]thiophen-3-ylcarbonyl)amino]-5-chloro-2-fluorophenyl]acetyl]-(4S)-(4-fluoropiperidin-1-yl)-(2S)-pyrrolidinylmethoxy]cyclohexanecarboxylic acid], the pKi was 9.04 and the pIC50 is 8.41.

In the case of `Cn1cc(C(=O)Nc2cc(F)c(CC(=O)N3C[C@@H](N4CCC(F)(F)CC4)C[C@H]3CO[C@H]3CC[C@H](C(=O)O)CC3)cc2Cl)c2ccccc21` [Example 101, Trans-4-[1-[[5-chloro-2-fluoro-4-[(1-methyl-1H-indol-3-ylcarbonyl)amino]phenyl]acetyl]-(4S)-(4,4-difluoropiperidin-1-yl)-(2S)-pyrrolidinylmethoxy]cyclohexanecarboxylic acid], the pKi was 8.40 and the pIC50 is 7.77.

For the compound `O=C(Nc1cc(F)c(CC(=O)N2C[C@@H](N3CCC(Oc4ccccc4)CC3)C[C@H]2CO[C@H]2CC[C@H](C(=O)O)CC2)cc1Cl)c1csc2ccccc12` [Example 102], the pKi is 8.92 and the pIC50 is 7.48.
